Drawing on BindingDB's records for PubMed 3139864 (Vanderbilt University, 1988), this text covers Ki for four molecules.

This assay addresses T1, 5-hydroxytryptamine receptor 2C (Rattus norvegicus, UniProt P08909).
T1 sequence (P08909 whole entry): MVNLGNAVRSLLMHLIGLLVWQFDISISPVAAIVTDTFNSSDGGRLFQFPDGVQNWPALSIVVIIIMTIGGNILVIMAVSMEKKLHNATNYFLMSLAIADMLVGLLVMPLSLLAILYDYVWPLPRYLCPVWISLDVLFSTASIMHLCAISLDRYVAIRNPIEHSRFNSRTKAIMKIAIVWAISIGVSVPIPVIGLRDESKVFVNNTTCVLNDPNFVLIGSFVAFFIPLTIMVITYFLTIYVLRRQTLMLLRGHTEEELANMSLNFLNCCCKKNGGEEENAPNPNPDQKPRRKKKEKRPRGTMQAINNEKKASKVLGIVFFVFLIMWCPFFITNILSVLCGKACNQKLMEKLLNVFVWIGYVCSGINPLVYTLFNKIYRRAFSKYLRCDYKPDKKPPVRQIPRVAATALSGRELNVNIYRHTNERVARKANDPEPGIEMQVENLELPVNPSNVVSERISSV
In the case of `O=C(c1ccc(F)cc1)C1CCN(CCn2c(=O)[nH]c3ccccc3c2=O)CC1` [3-(2-{4-[(4-fluorophenyl)carbonyl]piperidin-1-yl}ethyl)-1,2,3,4-tetrahydroquinazoline-2,4-dione], the affinity, expressed as Ki, was 30 nM.

`CN(C)CCC(c1ccc(Cl)cc1)c1ccccn1` (centres undefined) [clorfeniramina] had a Ki of 3120 nM.

`CN(C)CCCN1c2ccccc2CCc2ccccc21` displayed a Ki of 100 nM.

`CC1(C)CC(=O)N(CCCCN2CCN(c3ncccn3)CC2)C(=O)C1` [4,4-Dimethyl-1-[4-(4-pyrimidin-2-yl-piperazin-1-yl)-butyl]-piperidine-2,6-dione] yielded a Ki of more than 10000 nM.
